Measurements taken from patent US7498348B2, “1 H-imidazole derivatives as cannabinoid receptor modulators” (Solvay Pharmaceuticals, Inc., priority 2003, dated 2009).
≈ marks a conversion by molar mass, not a printed value. Where two headings read alike, the source gives them in different places.

Columns and labels:
[1] = Determination of aqueous solubility (precipitate formation after 100-fold dilution of DMSO stock solutions); type: physicochemical; settings: kinetic from dmso stock
Description: Determination of Aqueous Solubility
The compounds are dissolved in DMSO to give 10 mg/ml stock solutions. These stock solutions are divided over several plates. Several diluted concentrations are made with DMSO to 5, 2.5, 1.25, 0.625 and 0.3125 mg/ml, respectively. The stock solution and each derived concentration from this stock solution is taken and diluted 100 fold with water or with water containing a buffer. In every case this gives an aqueous solution which contains 1% DMSO (v/v) and 100, 50, 25, 12.5 and 6.25 and 3.125 μg compound/ml, respectively. The formation of a precipitate is determined in each plate. The measurements were performed at pH=7, applying a HEPES buffer and at pH=2, applying hydrochloric acid. Aqueous solubility is expressed in μg/ml in the table below.
Aqueous solubilities of two of the compounds of general formula (I), the compounds 1 and 4, and the compound 1-(4-chlorophenyl)-2-(2,4-dichloro-phenyl)-N-cyclohexyl-1H-imidazole-4-carboxamide (compound 3 from WO 03/063781) were determined according to the procedure described above.

[2] = target: T1, human cannabinoid CB1 receptor (Homo sapiens, UniProt P21554); test: In vitro affinity for cannabinoid-CB1 receptors ([3H]CP-55,940 radioligand, CHO cell membrane preparations); type: binding; settings: CHO cell membranes, stably transfected human CB1, [3H]CP-55,940; read-out: Human cannabinoid-CB1 receptor In vitro affinity - pKi value (converted)
T1 construct: expressed in transfected cells; host or cells: Chinese hamster ovary (CHO) cells, stably transfected; membrane preparations
Description: In Vitro Affinity for Cannabinoid-CB1 Receptors
The affinity of the compounds of the invention for cannabinoid CB1 receptors can be determined using membrane preparations of Chinese hamster ovary (CHO) cells in which the human cannabinoid CB1 receptor is stably transfected in conjunction with [^3H]CP-55,940 as radioligand. After incubation of a freshly prepared cell membrane preparation with the [^3H]-ligand, with or without addition of compounds of the invention, separation of bound and free ligand is performed by filtration over glassfiber filters. Radioactivity on the filter is measured by liquid scintillation counting.
Pharmacological test results of a subset of the compounds of the invention, obtained with the assay described above, are given in table 2 below: […]

T1 sequence (P21554 whole entry): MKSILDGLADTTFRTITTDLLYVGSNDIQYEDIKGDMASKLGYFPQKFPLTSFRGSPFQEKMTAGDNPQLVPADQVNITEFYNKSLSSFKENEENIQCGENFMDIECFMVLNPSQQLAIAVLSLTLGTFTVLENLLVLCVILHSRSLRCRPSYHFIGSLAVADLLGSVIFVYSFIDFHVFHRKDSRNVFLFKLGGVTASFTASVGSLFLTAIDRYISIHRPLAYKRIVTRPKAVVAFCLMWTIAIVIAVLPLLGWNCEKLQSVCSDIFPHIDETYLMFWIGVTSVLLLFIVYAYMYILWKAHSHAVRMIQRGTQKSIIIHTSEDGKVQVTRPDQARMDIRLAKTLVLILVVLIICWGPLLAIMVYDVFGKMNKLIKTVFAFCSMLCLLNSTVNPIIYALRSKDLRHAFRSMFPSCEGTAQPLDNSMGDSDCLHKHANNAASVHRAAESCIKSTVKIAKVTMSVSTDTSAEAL

Compound	Ki [2] [nM]	melting point [°C]	solubility ([1]; pH 2, simulated gastric fluid) [µg/mL]	solubility ([1]; pH 7, aqueous buffer) [µg/mL]	solubility ([1]; aqueous buffer, pH = 7, HEPES buffer, 1% DMSO (v/v), read-out: Aqueous solubility in μg/ml at pH = 7) [µg/mL]	solubility ([1]; simulated gastric fluid, pH = 2, hydrochloric acid, 1% DMSO (v/v), read-out: Aqueous solubility in μg/ml at pH = 2) [µg/mL]
O=C(NC1CCCCC1)c1cn(-c2ccc(Cl)cc2)c(-c2ccc(Cl)cc2Cl)n1 [1-(4-chlorophenyl)-2-(2,4-dichloro-phenyl)-N-cyclohexyl-1H-imidazole-4-carboxamide, reference compound]			25 (≈ 55.7 µM)	25 (≈ 55.7 µM)		
CN(C)Cc1c(C(=O)NN2CCCCC2)nc(-c2ccc(Cl)cc2Cl)n1-c1ccc(Cl)cc1 [Compound 3, N-(piperidin-1-yl)-1-(4-chlorophenyl)-2-(2,4-dichlorophenyl)-5-(N,N-dimethylaminomethyl)-1H-imidazole-4-carboxamide]	100	163 to 166				
CN(C)Cc1c(C(=O)NC2CCCCC2)nc(-c2ccc(Cl)cc2Cl)n1-c1ccc(Cl)cc1 [Compound 4, N-cyclohexyl-1-(4-chlorophenyl)-2-(2,4-dichlorophenyl)-5-(N,N-dimethylaminomethyl)-1H-imidazole-4-carboxamide]	31.6				50 (≈ 98.8 µM)	> 100
CCN(C)Cc1c(C(=O)NN2CCCCC2)nc(-c2ccc(Cl)cc2Cl)n1-c1ccc(Cl)cc1 [Compound 6, N-(piperidin-1-yl)-1-(4-chlorophenyl)-2-(2,4-dichlorophenyl)-5-(N-ethyl, N-methylaminomethyl)-1H-imidazole-4-carboxamide]	126					

Second part, led by results:

Ki [2] [nM]	melting point [°C]	Compound	solubility ([1]; pH 2, simulated gastric fluid) [µg/mL]	solubility ([1]; pH 7, aqueous buffer) [µg/mL]	solubility ([1]; aqueous buffer, pH = 7, HEPES buffer, 1% DMSO (v/v), read-out: Aqueous solubility in μg/ml at pH = 7) [µg/mL]	solubility ([1]; simulated gastric fluid, pH = 2, hydrochloric acid, 1% DMSO (v/v), read-out: Aqueous solubility in μg/ml at pH = 2) [µg/mL]
7.94	155 to 157	O=C(NC1CCCCC1)c1nc(-c2ccc(Cl)cc2Cl)n(-c2ccc(Cl)cc2)c1CN1CCCC1 [Compound 1, N-cyclohexyl-1-(4-chlorophenyl)-2-(2,4-dichlorophenyl)-5-(pyrrolidin-1-ylmethyl)-1H-imidazole-4-carboxamide]	> 100	50 (≈ 94 µM)		
6.31	135 to 136	CCN(C)Cc1c(C(=O)NC2CCCCC2)nc(-c2ccc(Cl)cc2Cl)n1-c1ccc(Cl)cc1 [Compound 2, N-cyclohexyl-1-(4-chlorophenyl)-2-(2,4-dichlorophenyl)-5-(N-ethyl,N-methylaminomethyl)-1H-imidazole-4-carboxamide]				
